Assay results: publication PMC12261219, “Comparative Evaluation of Thiol- and Amine-Conjugating Moieties for Endogenous Albumin Binding after Intravenous Administration” (ACS Pharmacology & Translational Science, 2025)
“And” between values parts separate entries of the source, which are not always exact repeats. Equal entries are not always repeated.

How the values were obtained:
[1] = Hydrolytic stability in buffer (HPLC); format: physicochemical; details: for Intact compound after 25 h: 0.5 mM
Procedure: The samples were incubated at 20 °C and measured over 25 h. Reversed phase high-performance liquid chromatography (RP-HPLC) runs were performed using a Waters Acquity UPLC BEH C18 column (130 Å, 1.7 μm, 3 mm × 50 mm) on a Dionex Thermo Scientific UltiMate 3000 HPLC system, equipped with a HPG-3400RS binary pump and a DAD-3000 UV–vis detector. Chromatograms were evaluated at a wavelength of 220 nm. Milli-Q water (mobile phase A) and acetonitrile (mobile phase B), both containing 0.1% TFA, were used as eluents. The flow rate was consistent at 0.6 mL/min for all measurements using the following gradient: 0–0.5 min A 95:5 B, 0.5–5.5 min linear gradient to A 5:95 B, 5.5–6.5 min A 5:95 B, 6.5–9.2 min A 95:5 B. The same conditions were applied for stability measurements in 100 mM PB at pH 5.5 and 6.5 as well as in 20 mM HEPES and MOPS at pH 7.4. RP-HPLC-MS analyses of the same samples after the stability measurements were conducted on a Waters Acquity UPLC BEH C18 column (130 Å, 1.7 μm, 3 mm × 50 mm) on an Agilent 1260 Infinity II system equipped with a Flexible pump, a 1260 VWD UV–vis detector and the LC–MSD system. Chromatograms were evaluated at a wavelength of 220 nm. Milli-Q water (mobile phase A) and acetonitrile (mobile phase B), both containing 0.1% formic acid, were used as eluents. The flow rate was consistent at 0.6 mL/min for all measurements using the following gradient: 0–0.5 min A 95:5 B, 0.5–6.0 min linear gradient to A 5:95 B, 6.0–7.0 min A 5:95 B, 7.0–7.1 min linear gradient to A 95:5 B, 7.1–8.0 min A 95:5 B.

[2] = test system: CT26 colon cancer cells; details: i.v.
Procedure: CT26 cells (5 × 10^5 in serum-free medium) were injected s.c. into the right flank of male Balb/c mice. […] 0.9% NaCl served as solvent control. Animals were controlled for distress development every day and tumor size was assessed regularly by caliper measurement. Tumor volume was calculated using the formula: (length × width^2)/2. In the overall survival experiments, mice were sacrificed by cervical dislocation in the case of a tumor length >20 mm, tumor ulceration or body weight loss >20%.

[3] = equimolar to 9 mg/kg oxaliplatin, days 4, 8, 12

CC(=O)[O][Pt-2]12([O]C(=O)NCCOCCOCCOCCOCCN3C(=O)C=CC3=O)([NH2+][C@@H]3CCCC[C@H]3[NH2+]1)[O]C(=O)C(=O)[O]2 [Mal-Ox-OAc, (OC-6–34)-Acetato[(1R,2R)-1,2-cyclohexane-1,2-diamino][ (14-(2,5-dioxo-2,5-dihydro-1H-pyrrol-1-yl)-3,6,9,12-tetraoxatetradecyl)-carbamato]-oxalato platinum(IV)]
Intact compound after 25 h ([1]; 20 mM HEPES, pH 7.4, 20 °C): 56% and ~60%
Intact compound after 25 h ([1]; 20 mM MOPS, pH 7.4, 20 °C): 58% and ~60%
Intact compound after 25 h ([1]; 100 mM PB, pH 5.5, 20 °C): 96%
Intact compound after 25 h ([1]; 100 mM PB, pH 6.5, 20 °C): 80%
Intact compound after 25 h ([1]; 100 mM PB, pH 7.4, 20 °C): 23%
Impact on tumor growth [2, 3]: distinctly reduced tumor growth
Increase of overall survival compared to solvent control [2, 3]: ~50%
Prolonged overall survival compared to solvent-treated animals [2, 3]: about 10 days

CC(=O)[O][Pt-2]12([O]C(=O)NCCOCCOCCOCCOc3ccc(-c4nnc(S(C)(=O)=O)o4)cc3)([NH2+][C@@H]3CCCC[C@H]3[NH2+]1)[O]C(=O)C(=O)[O]2 [PODS-Ox-OAc, (OC-6–34)-Acetato[(1R,2R)-1,2-cyclohexane-1,2-diamino][(2-(2-(2-(2-(4-(5-(methylsulfonyl)-1,3,4-oxadiazol-2-yl)-phenoxy)-ethoxy)-ethoxy)-ethoxy)-ethyl)-carbamato]-oxalato platinum(IV)]
Intact compound after 25 h ([1]; 20 mM HEPES, pH 7.4, 20 °C): 54%
Intact compound after 25 h ([1]; 20 mM MOPS, pH 7.4, 20 °C): 76%
Intact compound after 25 h ([1]; 100 mM PB, pH 5.5, 20 °C): 99%
Intact compound after 25 h ([1]; 100 mM PB, pH 6.5, 20 °C): 94%
Intact compound after 25 h ([1]; 100 mM PB, pH 7.4, 20 °C): 70%
Impact on tumor growth [2, 3]: slight remission or stable disease
Increase of overall survival compared to solvent control [2, 3]: ~80%
Tolerability (body weight) ([2]; three administrations over 2 weeks (days 4, 8, 12)): well-tolerated

CC(=O)[O][Pt-2]12([O]C(=O)NCCOCCOCCOCCOC(=O)C3=CCCCC3S(=O)(=O)Nc3ccc(F)cc3F)([NH2+]C3CCCCC3[NH2+]1)[O]C(=O)C(=O)[O]2 (mixture of isomers) [DFSA-Ox-OAc, (OC-6–34)-Acetato[(1R,2R)-1,2-cyclohexane-1,2-diamino][(1-(6-(N-(2,4-difluorophenyl)-sulfamoyl)-cyclohex-1-en-1-yl)-1-oxo-2,5,8,11-tetraoxatridecan-13-yl)-carbamato]-oxalato platinum(IV)]
Intact compound after 25 h ([1]; 20 mM HEPES, pH 7.4, 20 °C): stable
Intact compound after 25 h ([1]; 20 mM MOPS, pH 7.4, 20 °C): stable
Intact compound after 25 h ([1]; 100 mM PB, pH 5.5, 20 °C): stable
Intact compound after 25 h ([1]; 100 mM PB, pH 6.5, 20 °C): stable
Intact compound after 25 h ([1]; 100 mM PB, pH 7.4, 20 °C): 97%
Hydrolytic stability in all tested conditions ([1]; PB pH 5.5, 6.5, 7.4, HEPES and MOPS pH 7.4, 20 °C, 25 h): stable
